Source: publication PMC9849163, “Characterisation of AMB-FUBINACA metabolism and CB1-mediated activity of its acid metabolite” (Forensic Toxicology, 2022)

Legend:
[1] = target: T1, cannabinoid type-1 receptor (CB1) (Homo sapiens, UniProt P21554); test: BRET CAMYEL cAMP inhibition assay (agonism); also weak radioligand displacement ([…] at […]); format: cell-based
T1 construct: gene CNR1; 3HA-tagged human CB1 in HEK293 cells

[2] = target: T2, CES1 (carboxylesterase 1, CES1A1) (Homo sapiens, UniProt P23141); test: product of AMB-FUBINACA hydrolysis by recombinant CES1, HPLC-DAD; format: biochemical
T2 construct: CES1 isoform b (CES1b/CES1A1) human recombinant
T2 sequence (P23141 18-567): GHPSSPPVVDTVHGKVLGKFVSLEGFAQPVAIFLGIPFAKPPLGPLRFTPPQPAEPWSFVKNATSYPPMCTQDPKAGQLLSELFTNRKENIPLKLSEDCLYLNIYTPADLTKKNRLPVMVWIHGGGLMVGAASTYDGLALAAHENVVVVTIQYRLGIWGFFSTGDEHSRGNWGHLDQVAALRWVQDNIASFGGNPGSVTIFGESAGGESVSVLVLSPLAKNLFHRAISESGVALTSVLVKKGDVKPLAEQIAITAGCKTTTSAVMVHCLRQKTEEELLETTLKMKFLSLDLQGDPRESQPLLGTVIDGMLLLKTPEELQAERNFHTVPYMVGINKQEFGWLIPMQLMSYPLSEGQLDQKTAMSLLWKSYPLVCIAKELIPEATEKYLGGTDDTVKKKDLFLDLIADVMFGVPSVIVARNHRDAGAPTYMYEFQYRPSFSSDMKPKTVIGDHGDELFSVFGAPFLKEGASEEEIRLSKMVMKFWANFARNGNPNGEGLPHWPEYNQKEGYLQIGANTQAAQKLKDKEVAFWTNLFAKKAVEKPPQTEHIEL

[3] = target: T2, CES1 (carboxylesterase 1, CES1A1); test: hydrolysis by recombinant CES1, HPLC-DAD time course (t1/[…] s at […]); format: biochemical
[4] = target: T1, cannabinoid type-1 receptor (CB1); test: BRET CAMYEL cAMP inhibition assay (agonism) in HEK293 cells stably expressing 3HA-hCB1; format: cell-based
[5] = target: T2, CES1 (carboxylesterase 1, CES1A1); test: p-nitrophenol formation by recombinant CES1, absorbance at […] nm; format: biochemical
[6] = target: T3, CES2 (carboxylesterase-2) (Homo sapiens, UniProt O00748); test: p-nitrophenol formation by recombinant CES2, absorbance at […] nm; format: biochemical
T3 construct: carboxylesterase-2 (CES2) human recombinant
T3 sequence (O00748 27-559): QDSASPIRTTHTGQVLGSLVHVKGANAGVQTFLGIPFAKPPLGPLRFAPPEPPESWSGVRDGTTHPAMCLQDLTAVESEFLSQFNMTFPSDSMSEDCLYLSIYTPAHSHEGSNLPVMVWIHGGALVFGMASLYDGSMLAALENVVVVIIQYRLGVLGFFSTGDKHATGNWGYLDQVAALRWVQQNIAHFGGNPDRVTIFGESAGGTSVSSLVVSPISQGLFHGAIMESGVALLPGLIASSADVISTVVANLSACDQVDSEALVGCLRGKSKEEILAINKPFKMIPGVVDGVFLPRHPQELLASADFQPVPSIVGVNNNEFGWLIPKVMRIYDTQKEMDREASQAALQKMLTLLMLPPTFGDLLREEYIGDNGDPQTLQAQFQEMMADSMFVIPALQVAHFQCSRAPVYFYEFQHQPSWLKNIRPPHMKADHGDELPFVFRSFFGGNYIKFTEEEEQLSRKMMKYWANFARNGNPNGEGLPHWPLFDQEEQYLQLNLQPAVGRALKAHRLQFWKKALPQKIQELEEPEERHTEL

[7] = target: T2, CES1 (carboxylesterase 1, CES1A1); test: inhibition of PNPA hydrolysis by recombinant CES1, absorbance at […] nm; format: biochemical; conditions: read-out: % of control velocity at 50 μM
[8] = target: T3, CES2 (carboxylesterase-2); test: inhibition of PNPA hydrolysis by recombinant CES2, absorbance at […] nm; format: biochemical; conditions: read-out: % of control velocity at 50 μM

T1 sequence (P21554 whole entry): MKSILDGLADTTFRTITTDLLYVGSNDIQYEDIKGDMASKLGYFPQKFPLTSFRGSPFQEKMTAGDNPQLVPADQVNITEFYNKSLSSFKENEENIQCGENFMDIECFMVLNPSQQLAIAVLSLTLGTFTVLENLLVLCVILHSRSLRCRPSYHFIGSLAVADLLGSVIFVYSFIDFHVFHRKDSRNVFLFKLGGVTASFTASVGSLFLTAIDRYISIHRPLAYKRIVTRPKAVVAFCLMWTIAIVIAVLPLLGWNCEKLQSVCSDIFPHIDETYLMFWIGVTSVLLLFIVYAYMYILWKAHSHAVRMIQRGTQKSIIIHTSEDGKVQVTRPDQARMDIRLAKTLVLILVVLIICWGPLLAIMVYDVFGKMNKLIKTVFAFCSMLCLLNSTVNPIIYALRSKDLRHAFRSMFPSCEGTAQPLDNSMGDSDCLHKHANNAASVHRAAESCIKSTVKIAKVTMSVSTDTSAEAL

In the case of `CC(C)[C@H](NC(=O)c1nn(Cc2ccc(F)cc2)c2ccccc12)C(=O)O` [AMB-FUBINACA acid, methyl (2S)-2-((1-((4-fluorophenyl)methyl]indazole-3-carbonyl)amino)-3-methylbutanoic acid], the EC50 [1] is reported as 447 nM and the “product of AMB-FUBINACA hydrolysis by recombinant CES1, HPLC-DAD” value [2] is reported as “No metabolites other than AMB-FUBINACA acid were generated”.
Work on `COC(=O)[C@@H](NC(=O)c1nn(Cc2ccc(F)cc2)c2ccccc12)C(C)C` [AMB-FUBINACA, methyl (2S)-2-((1-((4-fluorophenyl)methyl)indazole-3-carbonyl)amino)-3-methylbutanoate] yielded a half-life at 3 µM [3] of 2 min and an EC50 [4] of 0.148 nM.
`CC(=O)Oc1ccc([N+](=O)[O-])cc1` [p-nitrophenyl acetate] was tested, and the “p-nitrophenol formation by recombinant CES1, absorbance at 405 nm” value [5] was 296 nmol/min/mg and the “p-nitrophenol formation by recombinant CES2, absorbance at 405 nm” value [6] was 221 nmol/min/mg.
`CCCc1nc2c(C)cc(-c3nc4ccccc4n3C)cc2n1Cc1ccc(-c2ccccc2C(=O)O)cc1` [telmisartan] was tested, and the remaining activity at 50 µM [7] was 71% and the remaining activity at 50 µM [8] was 58.2%.
